The text below walks through data of publication PMC12388126, “Photochemically Assisted Synthesis of Thienobenzotriazole-Based Dual Cholinesterase Inhibitors” (Molecules, 2025).

Data set [1] concerns BChE. On the set-up: method as in PMID 40732321. The note with it: cited from earlier work.
Data set [2] concerns the target T1, butyrylcholinesterase (BChE) (Equus caballus, UniProt P81908).
T1 construct: BChE (extracted from equine serum); purchased Sigma-Aldrich; host or cells: equine serum (natural source)
Put plainly: BChE inhibition, modified Ellman method. In kind it is biochemical. The method, then: (§1) Building on the previously promising in vitro results of thienobenzo-1,2,3-triazolinium salts against cholinesterases, research was extended to a series of structurally related bromide salts. The inhibitory effects of a new set of triazolinium salts (1–4, 7–11, 14–17) on the activities of acetylcholinesterase (AChE) and butyrylcholinesterase (BChE) are summarized in Table 1. Their inhibitory activity was assessed using a modified Ellman method over a wide concentration range (0.01–250 μM). The IC50 values listed in Table 1 are relative IC50 values, obtained directly from the nonlinear regression analysis of the inhibition curves under defined test conditions. For reference, the inhibitory effect at the highest tested concentration is also reported. The results were compared with galantamine, a well-known cholinesterase inhibitor used in the treatment of Alzheimer’s disease.
(§2) The inhibitory effects of the new synthesized thiabenzo-1,2,3-triazolinium bromide salts, 1–4, 7–11, and 14–17, on acetylcholinesterase (AChE) and butyrylcholinesterase (BChE) activity were evaluated using the modified Ellman’s method.
(§3) DTNB, ATChI, and BTChI were prepared in 50 mM Tris buffer (pH 8.0), while the enzymes were made in 20 mM Tris buffer (pH 7.5). Using a 96-well microplate reader (Agilent, BioTek 800TS, Santa Clara, CA, USA), cholinesterase activity was assessed. Amounts of 180 μL of 50 mM Tris buffer, 10 μL of tested solutions with final concentrations ranging from 0.01 to 250 μM, and 10 μL of an enzyme with a final concentration of 0.03 U/mL were added to the microplate well, which was then left to incubate for 15 min at room temperature. Following incubation, 10 μL of DTNB (final concentration: 0.3 mM) and […] of ATChI/BTChI (final concentration: 0.5 mM) were added to the reaction mixture. After four minutes, the absorbance was measured at 405 nm. Non-enzymatic hydrolysis was assessed as a blank for the control measurement in the absence of inhibitors and enzymes. The samples were tested using the non-enzymatic hydrolysis procedure with an additional inhibitor as a blank. The enzyme was swapped out for the same amount of buffer.
(§4) The inhibition % was determined using the following formula: Inhibition (%) = [(AC − AT)/AC] × 100, where AC is the activity of the enzyme without a test sample and AT is the activity of the enzyme with a test sample. The mean values ± standard deviation are used to illustrate the results. Inhibitory activity of ethanol was deducted from each sample. A nonlinear fit of compound concentration values vs. response was used to determine the IC50 values. Each trazolinium salt was tested against both enzymes in triplicate.
In general terms: Ellman's reagent forms a yellow product with free thiols.

The target in data set [3] is acetylcholinesterase (AChE) (Electrophorus electricus, UniProt O42275). In words: AChE inhibition, modified Ellman method. In kind it is biochemical. The conditions noted are these: for inhibition at 50 µM / inhibition at 100 µM / inhibition at 250 µM: read-out: AChE Inhibition (%); for IC50: relative IC50 from nonlinear regression, tested 0.01–250 μM. The method, then: as §1, §2, §3, §4
Sequence of acetylcholinesterase (AChE) (O42275 24-633): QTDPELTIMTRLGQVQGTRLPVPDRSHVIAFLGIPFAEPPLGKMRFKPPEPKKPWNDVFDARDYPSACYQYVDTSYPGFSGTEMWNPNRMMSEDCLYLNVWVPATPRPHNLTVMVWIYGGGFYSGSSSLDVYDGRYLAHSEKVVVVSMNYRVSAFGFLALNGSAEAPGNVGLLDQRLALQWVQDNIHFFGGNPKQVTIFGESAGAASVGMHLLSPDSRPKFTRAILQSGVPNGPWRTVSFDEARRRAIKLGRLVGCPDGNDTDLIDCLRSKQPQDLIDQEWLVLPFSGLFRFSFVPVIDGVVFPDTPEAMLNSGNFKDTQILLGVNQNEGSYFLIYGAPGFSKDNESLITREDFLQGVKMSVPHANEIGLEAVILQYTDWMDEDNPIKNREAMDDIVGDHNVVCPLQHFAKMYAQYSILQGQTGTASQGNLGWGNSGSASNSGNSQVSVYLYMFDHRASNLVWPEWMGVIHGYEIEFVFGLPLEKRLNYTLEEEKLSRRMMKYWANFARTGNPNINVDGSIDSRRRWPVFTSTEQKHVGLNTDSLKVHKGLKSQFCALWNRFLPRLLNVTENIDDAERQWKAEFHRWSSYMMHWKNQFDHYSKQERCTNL

Data set [4] deals with PBMCs. In words: Cell viability of PBMCs (CellTiter-Glo). In kind it is cell-based. The note with it: LPS-stimulated PBMCs, 24 h. The method, then: The effect of compounds on tumor necrosis factor alpha (TNFα) production in lipopolysaccharide (LPS)-stimulated peripheral blood mononuclear cells (PBMCs) was evaluated as described previously. In short, PBMCs were isolated from buffy coats obtained from healthy adult volunteers and resuspended in RPMI1640 medium (Capricorn Scientific, Ebsdorfergrundu, Germany) supplemented with 10% heat-inactivated FBS (Biowest, Nuailléu, France), 1% GlutaMAX (Gibco, St. Louis, MO, USA), and 1% Antibiotic-Antimycotic (Gibco, St. Louis, MO, USA). PBMCs were seeded as 2 × 10^5 per well of a 96-well plate. […]
(§5) For cell viability evaluation, CellTiter-Glo reagent was used (Promega, Radoboj, Croatia) according to the manufacturer’s instructions. […] TNFα concentration in supernatants was measured by ELISA using antibodies and recombinant human TNFα protein (standard) from R&D Systems. […] Finally, after the plates were incubated with streptavidin HRP (Invitrogen, Thermo Fisher Scientific, Waltham, MA, USA), chemiluminescence ELISA Substrate (Roche, Zagreb, Croatia) was added to the wells and luminescence was measured using EnVision 2105 multilabel reader (Revvity, Waltham, MA, USA). Concentrations of TNFα in the supernatants were calculated using measured luminescence by interpolation from standard curves. […]
A general note: ATP-based viability assays read luminescence as a measure of living cells.

The test system of data set [5] is LPS-stimulated TNFα production in PBMCs. In words: TNFα production in LPS-stimulated PBMCs (ELISA). The data set is classed as cell-based, human. Here is the method: The potential anti-inflammatory activity of compounds 1–4, 7–11, and 14–17 was also evaluated in vitro by the measurement of TNFα production in LPS-stimulated PBMCs. […] At lower concentrations that were not affecting cell viability, LPS-induced TNFα production was not changed. […] Compound 17 was active only at the highest tested concentration.
The effect of compounds on tumor necrosis factor alpha (TNFα) production in lipopolysaccharide (LPS)-stimulated peripheral blood mononuclear cells (PBMCs) was evaluated as described previously. […]
as §5
(In an ELISA, binding on a coated surface is turned into a signal by an enzyme label.)

[6] abbreviates: relative IC50 from nonlinear regression, tested 0.01–250 μM, read-out: BChE IC50.

Read-outs that look alike come from different tables or passages of the source.

T1 sequence (P81908 whole entry): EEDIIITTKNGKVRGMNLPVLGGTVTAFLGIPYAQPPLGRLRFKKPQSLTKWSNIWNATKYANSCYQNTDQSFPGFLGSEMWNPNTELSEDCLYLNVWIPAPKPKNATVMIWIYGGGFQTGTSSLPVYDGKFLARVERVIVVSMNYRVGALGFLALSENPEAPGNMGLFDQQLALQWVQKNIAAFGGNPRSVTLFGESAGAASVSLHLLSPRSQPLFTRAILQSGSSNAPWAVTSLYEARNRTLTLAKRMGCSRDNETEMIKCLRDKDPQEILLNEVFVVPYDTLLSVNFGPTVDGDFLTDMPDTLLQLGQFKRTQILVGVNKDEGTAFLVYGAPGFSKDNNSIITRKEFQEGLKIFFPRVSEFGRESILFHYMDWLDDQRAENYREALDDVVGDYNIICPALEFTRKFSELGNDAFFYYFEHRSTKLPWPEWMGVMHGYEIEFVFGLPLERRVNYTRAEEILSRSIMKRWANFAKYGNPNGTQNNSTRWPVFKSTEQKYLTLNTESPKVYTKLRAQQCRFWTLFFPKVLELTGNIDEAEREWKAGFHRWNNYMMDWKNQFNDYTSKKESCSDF

In general, IC50 refers to the point on the concentration scale where inhibition reaches its midpoint. On to `C=CCn1n[n+](Cc2ccccc2)c2ccc3sccc3c21` [E], for which the IC50 in data set [1] is 98 nM.

Broadly, the inhibition is the drop in the measured response relative to a control, in per cent. In the case of `Cc1cccc(Cn2n[n+](Cc3ccc(I)cc3)c3ccc4sccc4c32)c1` [Compound 3, 3-(4-iodobenzyl)-1-(3-methylbenzyl)-1H-thieno[3′,2′:3.4]benzo[1.2-d][1.2,3]triazol-3-ium bromide], the inhibition at 50 µM in data set [2] (read-out: BChE Inhibition (%)) is 84.9 ± 3.6%; in data set [3] it was 76.7 ± 0.5%. The IC50 in data set [2] (setting [6]) was 700 nM; in data set [3] it was 5900 nM.

As to `COc1cccc(Cn2n[n+](Cc3ccc(Cl)cc3)c3ccc4sccc4c32)c1` [Compound 7, 3-(4-chlorobenzyl)-1-(3-methoxybenzyl)-1H-thieno[3′,2′:3.4]benzo[1.2-d][1.2,3]triazol-3-ium bromide], the inhibition at 10 µM in data set [2] (read-out: BChE Inhibition (%)) was 78.2 ± 0.4%. Also, the IC50 in data set [2] (setting [6]) was determined as 1000 nM. For the same molecule, in data set [3], the inhibition at 100 µM stood at 79.4 ± 4.9% and the midpoint of inhibition, the IC50, lay at 11800 nM.

In the case of `CC=Cn1n[n+](Cc2ccc(C)cc2)c2ccc3sccc3c21` [Compound 15, 3-(4-methylbenzyl)-1-(prop-1-en-1-yl)-1H-thieno[3′,2′:3.4]benzo[1.2-d][1.2,3]triazol-3-ium], in data set [2] (read-out: BChE Inhibition (%)), the inhibition at 50 µM was 84 ± 0.7%. In addition, the IC50 in data set [2] (setting [6]) came out at 900 nM. In addition, in data set [3], the inhibition at 250 µM was found to be 82.3 ± 0.8% and the IC50 was found to be 14400 nM.

For `Cc1ccc(Cn2n[n+](Cc3ccc(C)cc3)c3ccc4sccc4c32)cc1` [Compound 9, 1.3-bis(4-methylbenzyl)-1H-thieno[3′,2′:3.4]benzo[1.2-d][1.2,3]triazol-3-ium bromide], the inhibition at 25 µM in data set [2] (read-out: BChE Inhibition (%)) is 76.6 ± 0.4%. The IC50 in data set [2] (setting [6]) stood at 3500 nM. Besides, in data set [3], the inhibition at 50 µM is 78.7 ± 0.6% and half-maximal inhibition (IC50) was put at 5700 nM.

Take `CC=Cn1n[n+](Cc2ccc([N+](=O)[O-])cc2)c2ccc3sccc3c21` [Compound 17, 3-(4-nitrobenzyl)-1-(prop-1-en-1-yl)-1H-thieno[3′,2′:3,4]benzo[1,2-d][1–3]triazol-3-ium]: the inhibition at 100 µM was determined as 85.5 ± 0.5% in data set [2] (read-out: BChE Inhibition (%)) and 62.6 ± 5.3% in data set [3]. The IC50 in data set [2] (setting [6]) worked out at 11400 nM; in data set [3] it was 63800 nM. Besides, the “effect on cell viability” value in data set [4] is reported as “no effect on cell viability”. For the same molecule, the “classification as AChE inhibitor” value in data set [3] (in words) is “weak AChE inhibitor”. Also, the “effect on LPS-stimulated TNFα production” value in data set [5] (PBMCs, starting concentration 100 µM, three-fold dilutions) is on record as “slightly inhibited LPS-stimulated TNFα production”.

Turning to `CC=Cn1n[n+](Cc2ccccc2)c2ccc3sccc3c21` [Compound 14, 3-benzyl-1-(prop-1-en-1-yl)-1H-thieno[3′,2′:3.4]benzo[1.2-d][1.2,3]triazol-3-ium bromide], the results for the IC50 in data set [2] and in data set [3] were 1000 nM and 4300 nM, respectively. Besides, in data set [2] (read-out: BChE Inhibition (%)), the inhibition at 25 µM turned out to be 80.4 ± 2.9%. Also, the inhibition at 100 µM in data set [3] turned out to be 84.2 ± 0.5%.

Consider `CC=Cn1n[n+](Cc2ccc(Cl)cc2)c2ccc3sccc3c21` [Compound 16, 3-(4-chlorobenzyl)-1-(prop-1-en-1-yl)-1H-thieno[3′,2′:3,4]benzo[1,2-d][1–3]triazol-3-ium], for which the inhibition at 100 µM in data set [2] (read-out: BChE Inhibition (%)) is 84.8 ± 0.8%. Further, the figures for the IC50 in data set [2] (setting [6]) and in data set [3] were 2300 nM and 5400 nM, respectively. Also, in data set [3], the inhibition at 250 µM stood at 82.6 ± 1.1%.

Turning to `Cc1ccc(Cn2n[n+](Cc3ccc(Cl)cc3)c3ccc4sccc4c32)cc1` [Compound 10, 3-(4-chlorobenzyl)-1-(4-methylbenzyl)-1H-thieno[3′,2′:3.4]benzo[1.2-d][1.2,3]triazol-3-ium bromide], the inhibition at 25 µM in data set [2] (read-out: BChE Inhibition (%)) was 79.9 ± 1.1%. Further, the IC50 in data set [2] (setting [6]) was found to be 1500 nM. In data set [3], the inhibition at 100 µM amounted to 81.9 ± 0.6% and inhibition was half-maximal at 6500 nM (IC50).

Consider `Cc1ccc(C[n+]2nn(Cc3cccc(C)c3)c3c4ccsc4ccc32)cc1` [Compound 2, 1-(3-methylbenzyl)-3-(4-methylbenzyl)-1H-thieno[3′,2′:3.4]benzo[1.2-d][1.2,3]triazol-3-ium bromide], for which, in data set [2] (read-out: BChE Inhibition (%)), the inhibition at 2.5 µM stood at 77.6 ± 0.3%. In addition, the IC50 in data set [2] (setting [6]) is 300 nM. Besides, in data set [3], the inhibition at 50 µM was determined as 82.1 ± 4.2% and inhibition was half-maximal at 4100 nM (IC50).

As to `Cc1cccc(Cn2n[n+](Cc3ccccc3)c3ccc4sccc4c32)c1` [Compound 1, 3-benzyl-1-(3-methylbenzyl)-1H-thieno[3′,2′:3.4]benzo[1.2-d][1.2,3]triazol-3-ium bromide], the inhibition at 25 µM in data set [2] (read-out: BChE Inhibition (%)) was 83.9 ± 0.2%. Besides, the IC50 in data set [2] (setting [6]) was 400 nM; in data set [3], 6300 nM. The inhibition at 50 µM in data set [3] was determined as 78.6 ± 0.5%.

With `Cc1ccc(Cn2n[n+](Cc3ccccc3)c3ccc4sccc4c32)cc1` [Compound 8, 3-benzyl-1-(4-methylbenzyl)-1H-thieno[3′,2′:3.4]benzo[1.2-d][1.2,3]triazol-3-ium bromide], the inhibition at 10 µM in data set [2] (read-out: BChE Inhibition (%)) amounted to 83.6 ± 1%. The IC50 in data set [2] (setting [6]) amounted to 400 nM. In data set [3], the inhibition at 50 µM was 80.7 ± 2.3% and the IC50 was 2600 nM.

With `Cc1ccc(Cn2n[n+](Cc3ccc([N+](=O)[O-])cc3)c3ccc4sccc4c32)cc1` [Compound 11, 1-(4-methylbenzyl)-3-(4-nitrobenzyl)-1H-thieno[3′,2′:3.4]benzo[1.2-d][1.2,3]triazol-3-ium bromide], the inhibition at 25 µM in data set [2] (read-out: BChE Inhibition (%)) came to 81.1 ± 1.7%. Further, the IC50 in data set [2] (setting [6]) was 2700 nM. Besides, in data set [3], the inhibition at 50 µM came out at 83.6 ± 2.1% and inhibition was half-maximal at 3200 nM (IC50).

As to `C[C@@H]1C[C@H]2[C@@H]3CCC4=CC(=O)C=C[C@]4(C)[C@@]3(F)[C@@H](O)C[C@]2(C)[C@@]1(O)C(=O)CO` [dexamethasone, reference compound], the IC50 in data set [5] (Homo sapiens, PBMC, PBMCs from two donors, read-out: IC50, inhibition of LPS-stimulated TNFα production) turned out to be 3.5 nM.

Turning to `Clc1cccc(Cn2n[n+](Cc3ccc(I)cc3)c3ccc4sccc4c32)c1` [Compound 4, 1-(3-chlorobenzyl)-3-(4-iodobenzyl)-1H-thieno[3′,2′:3.4]benzo[1.2-d][1.2,3]triazol-3-ium bromide], the inhibition at 25 µM in data set [2] (read-out: BChE Inhibition (%)) is 83.2 ± 0.9%. Besides, the IC50 in data set [2] (setting [6]) came to 800 nM. For the same molecule, in data set [3], the inhibition at 50 µM stood at 74.6 ± 5% and the IC50 came to 14200 nM.
